Data from patent publication US20150119391A1, “ANTI-TUMORAL COMPOSITION COMPRISING THE COMPOUND 1-(6--1,3-BENZOTHIAZOL-2-YL)-3-(2-MORPHOLIN-4-YLETHYL)UREA” (SANOFI, priority 2012, published 2015).
≈ marks a conversion by molar mass, not a printed value. Read-outs that look alike come from different tables or passages of the source.

What was measured:
[1] = Biopharmaceutics Classification System class / permeability characteristics; type: physicochemical
[2] = tested on: human Met-driven tumor cell lines; assay: in vitro anti-proliferative activity; type: cell-based; details: (nM), Met-driven tumor cell lines exclusively
pKa (weak base) = type: physicochemical
solubility in water = type: physicochemical
[3] = tested on: human Met-amplified models; assay: cellular anti-tumor activity as a single agent; type: cell-based
[4] = stability to steam sterilization; type: physicochemical
Experimental: The concentrated pharmaceutical composition is prepared by usual methods for the preparation of aqueous liquid pharmaceutical composition. Generally, the process comprises a sterilization step, which is typically carried out by sterilizing filtration followed by aseptic filling.

- permeability characteristics [1]: poor
- pKa (pKa (weak base)): 6.4
- solubility (solubility in water): < 0.1 µg/mL
- solubility (solubility in water; aqueous buffer, above pH 5): < 0.1 µg/mL
- solubility (solubility in water; pH 1, simulated gastric fluid): ~90 µg/mL (≈ 163 µM)
- solubility (solubility in water; pH 3, aqueous buffer): ~20 µg/mL (≈ 36.3 µM)
- chemical stability on steam sterilization [4]: chemical degradation
Compound: O=C(NCCN1CCOCC1)Nc1nc2ccc(Sc3nnc4ccc(-c5ccc(F)cc5)nn34)cc2s1 [Compound A, 1-(6-{[6-(4-fluorophenyl)[1,2,4]triazolo[4,3-b]pyridazin-3-yl]sulfanyl}-1,3-benzothiazol-2-yl)-3-(2-morpholin-4-ylethyl)urea]
- anti-proliferative activity [2]: highly potent
- cellular anti-tumor activity [3]: highly potent
